Results published in PMC11971462, “Generation and validation of a novel multitarget small molecule in glioblastoma” (Cell Death & Disease, 2025).

Tested on: GNS166 cells
Assay: Label-free proteomics differential expression
Type: cell-based, human
Method: Proteomic studies were performed by the Proteomics Facility of the CIC bioGUNE by label-free relative quantification on nLC MS/MS. […] In both approaches, the top 20 enriched terms were plotted and the pathways were clustered using divisive hierarchical clustering based on pairwise Jaccard distances.

Which “LogFC STOM_HUMAN” value (protein P27105 GN=STOM) does the source give for `C#CCN(Cc1cc2cc(OCCCN3CCCCC3)ccc2n1S(=O)(=O)c1ccccc1)C(=O)CCCCCCC(=O)NO` [DDI] here?
Its value is 1.045.

And the “LogFC CD82_HUMAN” value (protein P27701 GN=CD82)?
Its value is -1.866.

And the “Direction PYR1_HUMAN” value (protein P27708)?
Its value is “Down”.

What about the “LogFC PYR1_HUMAN” value (protein P27708) of the same compound?
The value was -0.3818.

What about the “LogFC GSTM2_HUMAN” value (protein P28161 GN=GSTM2) of the same compound?
Its value is 1.203.

What about the “Direction DPOD1_HUMAN” value (protein P28340) of the same compound?
Its value is “Down”.

And the “LogFC DPOD1_HUMAN” value (protein P28340)?
Its value is -0.5649.

And the “LogFC GRAN_HUMAN” value (protein P28676 GN=GCA)?
The value was 2.772.

And the “Direction CD34_HUMAN” value (protein P28906)?
The value was “Down”.

And the “LogFC CD34_HUMAN” value (protein P28906)?
The value was -1.0921.

And the “LogFC TPP2_HUMAN” value (protein P29144 GN=TPP2)?
The value was 0.5124.

What about the “LogFC CCN2_HUMAN” value (protein P29279 GN=CCN2) of the same compound?
The value was 1.704.

And the “Direction EPHA2_HUMAN” value (protein P29317)?
Its value is “Down”.

And the “LogFC EPHA2_HUMAN” value (protein P29317)?
The value was -1.4702.

And the “LogFC AL4A1_HUMAN” value (protein P30038 GN=ALDH4A1)?
Its value is 0.9924.

What about the “LogFC BLVRB_HUMAN” value (protein P30043 GN=BLVRB) of the same compound?
The value was 1.9711.

What about the “LogFC CDC27_HUMAN” value (protein P30260 GN=CDC27) of the same compound?
The value was -0.6942.

What about the “LogFC CCND3_HUMAN” value (protein P30281 GN=CCND3) of the same compound?
The value was 1.575.

What about the “Direction NMT1_HUMAN” value (protein P30419) of the same compound?
The value was “Down”.

What about the “LogFC NMT1_HUMAN” value (protein P30419) of the same compound?
The value was -0.6586.

And the “Direction UFO_HUMAN” value (protein P30530)?
Its value is “Down”.

And the “LogFC UFO_HUMAN” value (protein P30530)?
Its value is -2.709.

What about the “Direction ILEU_HUMAN” value (protein P30740) of the same compound?
Its value is “Down”.

What about the “LogFC ILEU_HUMAN” value (protein P30740) of the same compound?
Its value is -0.3615.

What about the “Direction RIR2_HUMAN” value (protein P31350) of the same compound?
The value was “Down”.

And the “LogFC RIR2_HUMAN” value (protein P31350)?
Its value is -2.735.

And the “Direction DNJA1_HUMAN” value (protein P31689)?
Its value is “Down”.

What about the “LogFC DNJA1_HUMAN” value (protein P31689) of the same compound?
The value was -0.6634.

And the “LogFC AKT1_HUMAN” value (protein P31749 GN=AKT1)?
The value was -0.2725.

And the “Direction TF2H1_HUMAN” value (protein P32780)?
The value was “Down”.

What about the “LogFC TF2H1_HUMAN” value (protein P32780) of the same compound?
The value was -0.6552.

And the “LogFC TTK_HUMAN” value (protein P33981 GN=TTK)?
Its value is -1.092.

And the “LogFC VATE1_HUMAN” value (protein P36543 GN=ATP6V1E1)?
Its value is 1.641.

And the “LogFC PP1G_HUMAN” value (protein P36873 GN=PPP1CC)?
The value was 0.989.

And the “LogFC GNL1_HUMAN” value (protein P36915 GN=GNL1)?
Its value is 0.9003.

What about the “Direction COIL_HUMAN” value (protein P38432) of the same compound?
Its value is “Down”.

And the “LogFC COIL_HUMAN” value (protein P38432)?
The value was -1.999.

What about the “LogFC LICH_HUMAN” value (protein P38571 GN=LIPA) of the same compound?
Its value is 4.157.

What about the “LogFC VATA_HUMAN” value (protein P38606 GN=ATP6V1A) of the same compound?
Its value is 1.1187.

What about the “Direction COIA1_HUMAN” value (protein P39060) of the same compound?
Its value is “Down”.

What about the “LogFC COIA1_HUMAN” value (protein P39060) of the same compound?
The value was -1.248.

And the “LogFC MDHC_HUMAN” value (protein P40925 GN=MDH1)?
Its value is 0.224.

What about the “LogFC IF2G_HUMAN” value (protein P41091 GN=EIF2S3) of the same compound?
Its value is 0.129.

And the “LogFC EIF2D_HUMAN” value (protein P41214 GN=EIF2D)?
Its value is -1.485.

What about the “Direction UBA7_HUMAN” value (protein P41226) of the same compound?
Its value is “Down”.

And the “LogFC UBA7_HUMAN” value (protein P41226)?
Its value is -1.657.

What about the “LogFC IPP2_HUMAN” value (protein P41236 GN=PPP1R2) of the same compound?
Its value is 1.34.

And the “LogFC CSK_HUMAN” value (protein P41240 GN=CSK)?
The value was -0.3935.

And the “LogFC LAP2A_HUMAN” value (protein P42166 GN=TMPO)?
The value was -1.129.

What about the “LogFC LAP2B_HUMAN” value (protein P42167 GN=TMPO) of the same compound?
Its value is -0.9256.

And the “LogFC STAT1_HUMAN” value (protein P42224 GN=STAT1)?
The value was 0.5798.

And the “LogFC PK3CA_HUMAN” value (protein P42336 GN=PIK3CA)?
The value was -1.283.

What about the “LogFC MTOR_HUMAN” value (protein P42345 GN=MTOR) of the same compound?
The value was -0.7122.

What about the “LogFC CNDD3_HUMAN” value (protein P42695 GN=NCAPD3) of the same compound?
The value was -2.052.

What about the “LogFC THIM_HUMAN” value (protein P42765 GN=ACAA2) of the same compound?
Its value is 1.09.

What about the “Direction KI67_HUMAN” value (protein P46013) of the same compound?
Its value is “Down”.

What about the “LogFC KI67_HUMAN” value (protein P46013) of the same compound?
The value was -1.787.

What about the “LogFC ATRX_HUMAN” value (protein P46100 GN=ATRX) of the same compound?
Its value is -0.9089.

And the “Direction IF2M_HUMAN” value (protein P46199)?
Its value is “Down”.

And the “LogFC IF2M_HUMAN” value (protein P46199)?
The value was -0.8269.

What about the “LogFC MP2K3_HUMAN” value (protein P46734 GN=MAP2K3) of the same compound?
The value was 1.1042.

What about the “Direction STT3A_HUMAN” value (protein P46977) of the same compound?
The value was “Down”.

And the “LogFC STT3A_HUMAN” value (protein P46977)?
Its value is -0.5679.

What about the “LogFC PA24A_HUMAN” value (protein P47712 GN=PLA2G4A) of the same compound?
Its value is 2.918.

What about the “LogFC IF1AX_HUMAN” value (protein P47813 GN=EIF1AX) of the same compound?
The value was 0.7555.

What about the “Direction AGRE5_HUMAN” value (protein P48960) of the same compound?
The value was “Down”.

What about the “LogFC AGRE5_HUMAN” value (protein P48960) of the same compound?
Its value is -1.142.

And the “LogFC UB2R1_HUMAN” value (protein P49427 GN=CDC34)?
The value was 1.5155.

And the “Direction SYHM_HUMAN” value (protein P49590)?
Its value is “Down”.

What about the “LogFC SYHM_HUMAN” value (protein P49590) of the same compound?
The value was -1.4939.

And the “LogFC VPS41_HUMAN” value (protein P49754 GN=VPS41)?
The value was 1.216.

What about the “Direction NU153_HUMAN” value (protein P49790) of the same compound?
The value was “Down”.

What about the “LogFC NU153_HUMAN” value (protein P49790) of the same compound?
Its value is -1.0035.

And the “Direction DNLI3_HUMAN” value (protein P49916)?
Its value is “Down”.

And the “LogFC DNLI3_HUMAN” value (protein P49916)?
Its value is -1.6.

What about the “LogFC GBG4_HUMAN” value (protein P50150 GN=GNG4) of the same compound?
The value was 2.6107.

And the “Direction SERPH_HUMAN” value (protein P50454)?
The value was “Down”.

And the “LogFC SERPH_HUMAN” value (protein P50454)?
Its value is -1.017.

And the “Direction KNTC1_HUMAN” value (protein P50748)?
Its value is “Down”.

And the “LogFC KNTC1_HUMAN” value (protein P50748)?
Its value is -0.8446.

And the “LogFC BCAM_HUMAN” value (protein P50895 GN=BCAM)?
Its value is 1.4044.

And the “LogFC PLCD1_HUMAN” value (protein P51178 GN=PLCD1)?
The value was 0.5988.

And the “LogFC SMCA2_HUMAN” value (protein P51531 GN=SMARCA2)?
The value was -1.3906.

And the “Direction SMCA4_HUMAN” value (protein P51532)?
Its value is “Down”.

And the “LogFC SMCA4_HUMAN” value (protein P51532)?
Its value is -1.513.

And the “LogFC TPMT_HUMAN” value (protein P51580 GN=TPMT)?
Its value is 1.506.

And the “LogFC IRAK1_HUMAN” value (protein P51617 GN=IRAK1)?
The value was -0.8883.

And the “Direction GPM6A_HUMAN” value (protein P51674)?
Its value is “Down”.

And the “LogFC GPM6A_HUMAN” value (protein P51674)?
The value was -2.493.

What about the “Direction STA5B_HUMAN” value (protein P51692) of the same compound?
Its value is “Down”.

And the “LogFC STA5B_HUMAN” value (protein P51692)?
Its value is -2.183.

And the “LogFC PLXA3_HUMAN” value (protein P51805 GN=PLXNA3)?
Its value is 0.8663.

What about the “Direction CCNH_HUMAN” value (protein P51946) of the same compound?
Its value is “Down”.

And the “LogFC CCNH_HUMAN” value (protein P51946)?
Its value is -0.7175.

And the “LogFC UB2E1_HUMAN” value (protein P51965 GN=UBE2E1)?
Its value is -1.604.

What about the “Direction IMA1_HUMAN” value (protein P52292) of the same compound?
Its value is “Down”.

And the “LogFC IMA1_HUMAN” value (protein P52292)?
The value was -0.7516.

And the “LogFC EFNB2_HUMAN” value (protein P52799 GN=EFNB2)?
Its value is 1.665.

What about the “LogFC ARFP1_HUMAN” value (protein P53367 GN=ARFIP1) of the same compound?
Its value is 1.754.

What about the “Direction ACLY_HUMAN” value (protein P53396) of the same compound?
The value was “Down”.

And the “LogFC ACLY_HUMAN” value (protein P53396)?
Its value is -0.3852.

And the “Direction SC5A3_HUMAN” value (protein P53794)?
Its value is “Down”.

And the “LogFC SC5A3_HUMAN” value (protein P53794)?
The value was -1.548.

And the “LogFC SMTN_HUMAN” value (protein P53814 GN=SMTN)?
Its value is -1.694.

And the “LogFC HSP72_HUMAN” value (protein P54652 GN=HSPA2)?
The value was 3.712.

What about the “LogFC SNAA_HUMAN” value (protein P54920 GN=NAPA) of the same compound?
Its value is 0.6489.

And the “Direction IF5_HUMAN” value (protein P55010)?
Its value is “Down”.

What about the “LogFC IF5_HUMAN” value (protein P55010) of the same compound?
Its value is -0.5429.

What about the “LogFC S12A2_HUMAN” value (protein P55011 GN=SLC12A2) of the same compound?
The value was 0.5141.

What about the “LogFC XPO2_HUMAN” value (protein P55060 GN=CSE1L) of the same compound?
Its value is -0.4776.

What about the “LogFC BI1_HUMAN” value (protein P55061 GN=TMBIM6) of the same compound?
Its value is -0.6524.

What about the “Direction MAZ_HUMAN” value (protein P56270) of the same compound?
Its value is “Down”.

And the “LogFC MAZ_HUMAN” value (protein P56270)?
Its value is -1.733.

What about the “Direction SC61G_HUMAN” value (protein P60059) of the same compound?
Its value is “Down”.
